Source: patent US8940756B2, “Dihydronaphthyridines and related compounds useful as kinase inhibitors for the treatment of proliferative diseases” (Deciphera Pharmaceuticals, Inc., priority 2012, dated 2015)

Assays:
[1] = target: T1, c-KIT kinase (Seq ID no. 1) (Homo sapiens, UniProt P10721); assay: c-KIT Kinase Assay (pyruvate kinase/lactate dehydrogenase coupled); type: biochemical; details: enzymatic assay, ATP 200 μM; read-out: KIT (wt)
T1 construct: GST (N); TEV cleavage site (N); purchased deCODE Biostructures
Experimental: In this assay, the oxidation of NADH (measured by decrease in absorbance at 340 nm) was continuously monitored spectrophotometrically. […] The absorption at 340 nm was monitored continuously for 2 hours at 30° C. on Synergy 2 (BioTeK). The reaction rate was calculated using the 0 to 1 h time frame. Percent inhibition was obtained by comparison of reaction rate with that of a control (i.e. with no test compound). IC50 values were calculated from a series of percent inhibition values determined at a range of inhibitor concentrations using software routines as implemented in the GraphPad Prism software package. The protein construct was prepared by deCODE Biostructures using procedures known in the art. The construct contains […] of cKit, an N-terminal tag, a GST-fusion sequence and a TEV cleavage site.

[2] = target: T2, c-KIT D816V kinase (Seq ID no. 4) (Homo sapiens, UniProt P10721, D816V); assay: c-KIT D816V kinase Assay; type: biochemical; details: enzymatic assay, ATP 200 uM
T2 construct: D816V c-KIT (residues T544-V976 with N-terminal GST fusion, 16 nM); purchased deCODE Biostructures
Experimental: (§1) In this assay, the oxidation of NADH (measured by decrease in absorbance at 340 nm) was continuously monitored spectrophotometrically. […] The inhibition reaction was started by mixing serial diluted test compound with the above reaction mixture. The absorption at 340 nm was monitored continuously for 5 hours at 30° C. on Synergy 2 plate reader (BioTech).
The protein construct was prepared by deCODE Biostructures using procedures known in the art. The construct contains residues T544-V976 of cKit, an N-terminal tag, a GST-fusion sequence and a TEV cleavage site. This construct is identical to Seq ID no. 1 except for the D816V mutation.

[3] = target: T3, c-KIT T670I kinase (Seq ID no. 6) (Homo sapiens, UniProt P10721, T670I); assay: c-KIT T670I Kinase Assay; type: biochemical; details: enzymatic assay, ATP 200 uM
T3 construct: GST (N); TEV cleavage site (N); purchased deCODE Biostructures
Experimental: as §1, with “(BioTech). […] The protein construct was prepared by deCODE Biostructures using procedures known in the art. The construct contains […] of cKit, an N-terminal tag, a GST-fusion sequence and a TEV cleavage site. This construct is identical to Seq ID no.” for “(BioTech).”

[4] = target: T4, c-KIT D816H kinase (Seq ID no. 3) (Homo sapiens, UniProt P10721, D816H); assay: c-KIT D816H Kinase Assay; type: biochemical; details: enzymatic assay, ATP 200 μM
T4 construct: GST (N); TEV cleavage site (N); purchased deCODE Biostructures
Experimental: In this assay, the oxidation of NADH (measured by decrease in absorbance at 340 nm) was continuously monitored spectrophotometrically. […] The inhibition reaction was started by mixing serial diluted test compound with the above reaction mixture. The absorption at 340 nm was monitored continuously for 6 hours at 30° C. on Synergy 2 plate reader (BioTech). […] The protein construct was prepared by deCODE Biostructures using procedures known in the art. The construct contains […] of cKit, an N-terminal tag, a GST-fusion sequence and a TEV cleavage site. This construct is identical to Seq ID no. 1 except for the D816H mutation.

[5] = target: Phospho-KIT (Tyr719) in GIST430 cells (Homo sapiens, UniProt P10721); assay: GIST430 KIT Western Blot; type: cell-based; details: 4 hours, read-out: pKIT suppression by western blot analysi GIST430
Experimental: (§2) GIST48, GIST430, and GIST882 cells were obtained from J. Fletcher (Brigham and Women's Hospital, Boston, Mass.). GIST T1 cells were obtained from B. Rubin (Cleveland Clinic, Cleveland, Ohio) and Professor Takahiro Taguchi (Kochi Medical School, Nankoku, Kochi, Japan). […] GIST430 cells were grown in Ham's F10 medium supplemented with 15% characterized fetal bovine serum (Invitrogen, Carlsbad, Calif.), 30 mg/L bovine pituitary extract (BD Biosciences, San Jose, Calif.), 0.5% Mito+ serum extender (BD Biosciences, San Jose, Calif.), 1 unit/mL penicillin G, 1 μg/ml streptomycin, and 0.29 mg/mL L-glutamine at 37° C., 5% CO2, 95% humidity. GIST T1 cells were grown in DMEM medium supplemented with 10% characterized fetal bovine serum (Invitrogen, Carlsbad, Calif.), 1 unit/mL penicillin G, 1 ng/ml streptomycin, and 0.29 mg/mL L-glutamine at 37° C., 5% CO2, and 95% humidity. Cells were allowed to expand until reaching 70-95% confluence at which point they were subcultured or harvested for assay use.
(§3) One hundred fifty thousand cells were added per well in a 24-well tissue-culture treated plate. Cells were then incubated overnight at 37° C., 5% CO2, 95% humidity. Medium was aspirated, cells were washed with PBS, and serum-free Ham's F10 medium was added. A serial dilution of test compound was added to plates containing cells and plates were incubated for 4 hours at 37° C., 5% CO2, 95% humidity. Cells were washed with PBS, then lysed. Cell lysates were separated by SDS-PAGE and transferred to PVDF. Phospho-KIT (Tyr719) was detected using an antibody from Cell Signaling Technology (Beverly, Mass.), ECL Plus detection reagent (GE Healthcare, Piscataway, N.J.) and a Molecular Devices Storm 840 phosphorimager in fluorescence mode. Blots were stripped and probed for total KIT using an antibody from Santa Cruz Biotech (Santa Cruz, Calif.). IC50 values were calculated using Prism software (Graphpad, San Diego, Calif.).

[6] = target: Phospho-KIT (Tyr719) in GIST48 cells (Homo sapiens, UniProt P10721); assay: GIST48 KIT Western Blot; type: cell-based; details: 4 hours, read-out: pKIT suppression by western blot analysi GIST48
Experimental: as §2
as §3, with “Two” for “One”, “RPMI1640” for “Ham's F10”

T3 sequence (P10721 544-976 T670I): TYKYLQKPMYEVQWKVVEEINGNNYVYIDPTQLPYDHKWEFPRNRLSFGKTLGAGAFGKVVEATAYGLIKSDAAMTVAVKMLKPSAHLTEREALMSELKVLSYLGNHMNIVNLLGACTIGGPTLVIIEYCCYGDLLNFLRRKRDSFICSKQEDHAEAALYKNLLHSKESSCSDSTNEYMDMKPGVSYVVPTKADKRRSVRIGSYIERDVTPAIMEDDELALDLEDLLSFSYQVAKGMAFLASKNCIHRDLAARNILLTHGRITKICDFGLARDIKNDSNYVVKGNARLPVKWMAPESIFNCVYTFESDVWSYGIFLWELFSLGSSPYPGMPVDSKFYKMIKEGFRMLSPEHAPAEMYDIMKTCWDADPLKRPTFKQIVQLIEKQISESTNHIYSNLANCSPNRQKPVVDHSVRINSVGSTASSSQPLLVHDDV
T4 sequence (P10721 544-976 D816H): as the sequence (P10721 544-976 T670I) above, with I127T, D273H counted along it
T2 sequence (P10721 544-976 D816V): as the sequence (P10721 544-976 T670I) above, with I127T, D273V counted along it
T1 sequence (P10721 with tags, fused parts or gaps): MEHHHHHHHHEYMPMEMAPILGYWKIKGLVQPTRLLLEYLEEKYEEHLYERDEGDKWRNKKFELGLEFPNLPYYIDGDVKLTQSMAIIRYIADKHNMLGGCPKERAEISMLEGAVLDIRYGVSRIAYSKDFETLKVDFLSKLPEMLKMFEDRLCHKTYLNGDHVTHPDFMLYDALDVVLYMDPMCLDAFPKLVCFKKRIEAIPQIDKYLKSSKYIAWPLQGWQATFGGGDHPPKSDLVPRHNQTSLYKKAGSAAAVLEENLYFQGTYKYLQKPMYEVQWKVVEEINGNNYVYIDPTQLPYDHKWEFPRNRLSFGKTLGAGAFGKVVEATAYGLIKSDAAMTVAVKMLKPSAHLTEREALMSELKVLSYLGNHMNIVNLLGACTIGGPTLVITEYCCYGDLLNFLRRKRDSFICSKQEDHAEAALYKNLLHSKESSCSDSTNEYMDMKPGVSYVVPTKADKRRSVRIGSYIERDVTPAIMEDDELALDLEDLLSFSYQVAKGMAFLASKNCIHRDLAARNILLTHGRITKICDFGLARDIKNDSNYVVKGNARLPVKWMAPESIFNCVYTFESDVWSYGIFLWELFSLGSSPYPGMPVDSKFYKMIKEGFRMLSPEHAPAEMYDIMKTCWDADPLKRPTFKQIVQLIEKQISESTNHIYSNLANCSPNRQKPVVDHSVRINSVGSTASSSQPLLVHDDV
Sequence of Phospho-KIT (Tyr719) in GIST48 cells (P10721 whole entry V560D/D820A, form open): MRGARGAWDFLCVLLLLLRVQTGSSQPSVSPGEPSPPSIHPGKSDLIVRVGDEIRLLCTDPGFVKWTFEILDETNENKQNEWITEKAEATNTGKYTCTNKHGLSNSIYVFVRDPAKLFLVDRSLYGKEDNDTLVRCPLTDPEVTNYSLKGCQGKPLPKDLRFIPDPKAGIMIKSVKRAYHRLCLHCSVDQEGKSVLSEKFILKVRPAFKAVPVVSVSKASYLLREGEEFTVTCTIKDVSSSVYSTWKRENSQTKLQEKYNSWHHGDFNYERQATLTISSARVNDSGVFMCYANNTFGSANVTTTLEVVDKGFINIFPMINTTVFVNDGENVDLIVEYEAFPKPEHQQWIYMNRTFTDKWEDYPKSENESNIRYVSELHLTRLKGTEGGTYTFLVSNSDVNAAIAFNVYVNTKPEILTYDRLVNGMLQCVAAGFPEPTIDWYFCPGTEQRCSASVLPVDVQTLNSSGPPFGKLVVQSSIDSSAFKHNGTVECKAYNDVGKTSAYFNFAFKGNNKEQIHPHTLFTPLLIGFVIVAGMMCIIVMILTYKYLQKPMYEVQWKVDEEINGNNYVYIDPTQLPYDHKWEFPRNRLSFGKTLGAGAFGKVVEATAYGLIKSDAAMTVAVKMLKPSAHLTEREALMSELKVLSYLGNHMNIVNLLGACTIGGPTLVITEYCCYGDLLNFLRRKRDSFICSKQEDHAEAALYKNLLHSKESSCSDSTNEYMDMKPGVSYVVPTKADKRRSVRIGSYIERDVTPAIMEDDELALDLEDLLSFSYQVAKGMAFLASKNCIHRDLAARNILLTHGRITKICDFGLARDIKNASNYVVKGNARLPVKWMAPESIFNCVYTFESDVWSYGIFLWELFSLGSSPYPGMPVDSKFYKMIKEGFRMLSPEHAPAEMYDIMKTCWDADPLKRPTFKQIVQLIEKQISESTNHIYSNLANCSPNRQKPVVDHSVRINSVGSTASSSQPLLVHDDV
Sequence of Phospho-KIT (Tyr719) in GIST430 cells (P10721 with tags, fused parts or gaps DEL560-576/V654A, form open): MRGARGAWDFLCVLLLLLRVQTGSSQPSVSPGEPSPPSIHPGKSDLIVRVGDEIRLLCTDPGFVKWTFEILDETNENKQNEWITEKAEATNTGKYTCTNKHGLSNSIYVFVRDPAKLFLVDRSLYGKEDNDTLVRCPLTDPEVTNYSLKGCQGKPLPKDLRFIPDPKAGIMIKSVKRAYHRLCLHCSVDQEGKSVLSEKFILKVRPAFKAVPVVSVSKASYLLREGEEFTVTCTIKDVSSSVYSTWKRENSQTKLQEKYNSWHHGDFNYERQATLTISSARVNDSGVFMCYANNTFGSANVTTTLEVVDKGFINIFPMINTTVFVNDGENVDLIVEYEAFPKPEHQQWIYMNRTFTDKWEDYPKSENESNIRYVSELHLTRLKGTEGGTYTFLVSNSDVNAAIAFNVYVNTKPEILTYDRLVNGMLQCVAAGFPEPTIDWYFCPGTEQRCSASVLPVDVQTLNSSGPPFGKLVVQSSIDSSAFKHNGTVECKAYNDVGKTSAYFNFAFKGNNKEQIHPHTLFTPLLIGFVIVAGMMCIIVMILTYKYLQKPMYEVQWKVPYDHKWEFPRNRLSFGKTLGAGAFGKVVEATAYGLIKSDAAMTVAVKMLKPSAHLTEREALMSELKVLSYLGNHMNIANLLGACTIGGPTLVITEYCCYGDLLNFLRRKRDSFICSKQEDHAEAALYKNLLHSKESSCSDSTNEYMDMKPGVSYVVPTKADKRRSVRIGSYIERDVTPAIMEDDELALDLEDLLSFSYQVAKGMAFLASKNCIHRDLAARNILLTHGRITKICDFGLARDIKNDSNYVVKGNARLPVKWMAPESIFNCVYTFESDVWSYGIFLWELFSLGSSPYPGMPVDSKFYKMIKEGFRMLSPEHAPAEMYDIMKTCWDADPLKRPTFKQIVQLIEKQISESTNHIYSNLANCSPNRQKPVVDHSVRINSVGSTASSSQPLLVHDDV

Question: What does the source list for `CCn1c(=O)c(-c2cc(NC(=O)Nc3ccccc3)c(F)cc2Cl)cc2cnc(NC3CCN(C)CC3)cc21` [Example 46, 1-(4-chloro-5-(1-ethyl-7-(1-methylpiperidin-4-ylamino)-2-oxo-1,2-dihydro-1,6-naphthyridin-3-yl)-2-fluorophenyl)-3-phenylurea]?
Answer: IC50 [1]: 10 to 100 nM; IC50 [2]: 100 to 1000 nM; IC50 [3]: > 1000 nM

Question: Which results are given for `CCn1c(=O)c(-c2cc(NC(=O)Nc3ccccc3)c(F)cc2C)cc2cnc(Nc3ccc(C)nc3)cc21` [Example 111, 1-(5-(1-ethyl-7-((6-methylpyridin-3-yl)amino)-2-oxo-1,2-dihydro-1,6-naphthyridin-3-yl)-2-fluoro-4-methylphenyl)-3-phenylurea]?
Answer: IC50 [1]: 10 to 100 nM; IC50 [2]: 10 to 100 nM; IC50 [3]: 100 to 1000 nM

Question: What does the source list for `CCn1c(=O)c(-c2cc(NC(=O)Nc3ccccc3)c(F)cc2Cl)cc2cnc(NC(=O)[C@@H]3CCCN3)cc21` [Example 85, (S)—N-(3-(2-chloro-4-fluoro-5-(3-phenylureido)phenyl)-1-ethyl-2-oxo-1,2-dihydro-1,6-naphthyridin-7-yl)pyrrolidine-2-carboxamide]?
Answer: IC50 [1]: 10 to 100 nM; IC50 [2]: 10 to 100 nM; IC50 [3]: 100 to 1000 nM

Question: With `CCn1c(=O)c(-c2cc(NC(=O)Nc3ccc(F)c(CN4CCCC4)c3)c(F)cc2Cl)cc2cnc(NC)cc21` [Example 97, 1-(4-chloro-5-(1-ethyl-7-(methylamino)-2-oxo-1,2-dihydro-1,6-naphthyridin-3-yl)-2-fluorophenyl)-3-(4-fluoro-3-(pyrrolidin-1-ylmethyl)phenyl)urea] as the compound, how does the IC50 [1] read?
Answer: The IC50 was under 10 nM.

Question: What about the IC50 [4] of the same compound?
Answer: The IC50 was 10 to 100 nM.

Question: And the IC50 [2]?
Answer: Its IC50 is over 1000 nM.

Question: And the IC50 [3]?
Answer: The IC50 was 10 to 100 nM.

Question: Which results are given for `CCn1c(=O)c(-c2cc(NC(=O)Nc3ccc(F)c(CN4CCOCC4)c3)c(F)cc2Cl)cc2cnc(NC=O)cc21` [Example 107, N-(3-(2-chloro-4-fluoro-5-(3-(4-fluoro-3-(morpholinomethyl)phenyl)ureido)phenyl)-1-ethyl-2-oxo-1,2-dihydro-1,6-naphthyridin-7-yl)formamide]?
Answer: IC50 [1]: 10 to 100 nM; IC50 [2]: > 1000 nM; IC50 [3]: 10 to 100 nM

Question: With `CCn1c(=O)c(-c2cc(NC(=O)Nc3ccccc3)c(F)cc2F)cc2cnc(NC(=O)CC#N)cc21` [Example 75, 2-cyano-N-(3-(2,4-difluoro-5-(3-phenylureido)phenyl)-1-ethyl-2-oxo-1,2-dihydro-1,6-naphthyridin-7-yl)acetamide] as the compound, how does the IC50 [1] read?
Answer: The IC50 was under 10 nM.

Question: What about the IC50 [4] of the same compound?
Answer: The IC50 was 100 to 1000 nM.

Question: And the IC50 [2]?
Answer: The IC50 was 100 to 1000 nM.

Question: And the IC50 [3]?
Answer: The IC50 was 10 to 100 nM.

Question: How did the IC50 [1] turn out when `CCn1c(=O)c(-c2cc(NC(=O)Nc3ccccc3)c(F)cc2Cl)cc2cnc(NC3CCOC3)cc21` (stereo not drawn) [Example 47, 1-(4-chloro-5-(1-ethyl-2-oxo-7-(THF-3-ylamino)-1,2-dihydro-1,6-naphthyridin-3-yl)-2-fluorophenyl)-3-phenylurea] was run?
Answer: The IC50 was under 10 nM.

Question: And the IC50 [2]?
Answer: Its IC50 is 10 to 100 nM.

Question: What about the IC50 [3] of the same compound?
Answer: Its IC50 is over 1000 nM.

Question: What does the source list for `CCn1c(=O)c(-c2cc(NC(=O)Nc3ccccc3)c(F)cc2Cl)cc2cnc(NC3CCN(C)C3)cc21` (stereo not drawn) [Example 49, 1-(4-chloro-5-(1-ethyl-7-(1-methylpyrrolidin-3-ylamino)-2-oxo-1,2-dihydro-1,6-naphthyridin-3-yl)-2-fluorophenyl)-3-phenylurea]?
Answer: IC50 [1]: 10 to 100 nM; IC50 [2]: 100 to 1000 nM; IC50 [3]: 100 to 1000 nM

Question: Which results are given for `CCn1c(=O)c(-c2cc(NC(=O)Nc3ccccc3)c(F)cc2F)cc2cnc(NC(C)=O)cc21` [Example 66, 1-(5-(7-acetamido-1-ethyl-2-oxo-1,2-dihydro-1,6-naphthyridin-3-yl)-2,4-difluorophenyl)-3-phenylurea]?
Answer: IC50 [1]: < 10 nM; IC50 [2]: 10 to 100 nM; IC50 [3]: 10 to 100 nM; IC50 [5]: 10 to 100 nM; IC50 [6]: 100 to 1000 nM

Question: How did the IC50 [1] turn out when `CCn1c(=O)c(-c2cc(NC(=O)Nc3ccccc3)c(F)cc2Cl)cc2cnc(NC3CCOCC3)cc21` [Example 42, 1-(4-chloro-5-(1-ethyl-2-oxo-7-(tetrahydro-2H-pyran-4-ylamino)-1,2-dihydro-1,6-naphthyridin-3-yl)-2-fluorophenyl)-3-phenylurea] was run?
Answer: The IC50 was 10 to 100 nM.

Question: What about the IC50 [2] of the same compound?
Answer: The IC50 was 10 to 100 nM.

Question: What about the IC50 [3] of the same compound?
Answer: Its IC50 is 100 to 1000 nM.

Question: `CCn1c(=O)c(-c2cc(NC(=O)Nc3ccccc3)c(F)cc2C#N)cc2cnc(NC)cc21` [Example 76, 1-(4-cyano-5-(1-ethyl-7-(methylamino)-2-oxo-1,2-dihydro-1,6-naphthyridin-3-yl)-2-fluorophenyl)-3-phenylurea] was tested. Which IC50 [1] did it give?
Answer: Its IC50 is under 10 nM.

Question: And the IC50 [2]?
Answer: The IC50 was 10 to 100 nM.

Question: What about the IC50 [3] of the same compound?
Answer: Its IC50 is 100 to 1000 nM.

Question: Which results are given for `CCn1c(=O)c(-c2cc(NC(=O)Nc3ccccc3)c(F)cc2Cl)cc2cnc(NCCS(C)(=O)=O)cc21` [Example 48, 1-(4-chloro-5-(1-ethyl-7-(2-(methylsulfonyl)ethylamino)-2-oxo-1,2-dihydro-1,6-naphthyridin-3-yl)-2-fluorophenyl)-3-phenylurea]?
Answer: IC50 [1]: 10 to 100 nM; IC50 [2]: 100 to 1000 nM; IC50 [3]: > 1000 nM

Question: Which IC50 [1] does the source give for `CCn1c(=O)c(-c2cc(NC(=O)Nc3ccccc3)c(F)cc2Br)cc2cnc(NCCS(C)(=O)=O)cc21` [Example 52, 1-(4-bromo-5-(1-ethyl-7-(2-(methylsulfonyl)ethylamino)-2-oxo-1,2-dihydro-1,6-naphthyridin-3-yl)-2-fluorophenyl)-3-phenylurea] here?
Answer: Its IC50 is under 10 nM.

Question: And the IC50 [4]?
Answer: The IC50 was 100 to 1000 nM.

Question: Which results are given for `CCn1c(=O)c(-c2cc(NC(=O)Nc3ccc(F)c(CN(C)C)c3)c(F)cc2Cl)cc2cnc(NC)cc21` [Example 94, 1-(4-chloro-5-(1-ethyl-7-(methylamino)-2-oxo-1,2-dihydro-1,6-naphthyridin-3-yl)-2-fluorophenyl)-3-(3-((dimethylamino)methyl)-4-fluorophenyl)urea]?
Answer: IC50 [1]: < 10 nM; IC50 [2]: > 1000 nM; IC50 [3]: 10 to 100 nM
